{"source": "patent US11083725B2", "about": "(priority 2014, dated 2021)", "key": {"[1]": {"system": "NHBE cells", "test": "cells", "assay_type": "cell-based, human"}, "[2]": {"system": "CA09", "test": "microbe, parasite or virus in culture", "assay_type": "cell-based, influenza virus H1N1 strain A/CA/04/2009", "conditions": "for log reduction at 10 pM / log reduction at 0.0001 µM / log reduction at 0.001 µM / log reduction at 0.01 µM / log reduction at 0.1 µM / log reduction at 1 µM / log reduction at 10 µM / log reduction at 100 µM: NHBE, read-out: TCID50 (per mL); for Viral Titer Therapeutic: follow up validation titer, therapeutic treatment"}, "[3]": {"conditions": "read-out: IC50, Prophylactic Treatment, Control"}, "[4]": {"conditions": "read-out: IC50, Prophylactic Treatment, Viral Infected"}, "[5]": {"conditions": "[…], dose response 4 nM to 10 μM, […], read-out: IC50, Therapeutic Treatment, Viral Infected"}, "[6]": {"conditions": "[…], prophylactic schedule, dose response 4 nM to 10 μM, […], read-out: IC50, Prophylactic Treatment, Control"}, "[7]": {"conditions": "[…], therapeutic schedule, dose response 4 nM to 10 μM, […], read-out: IC50, Therapeutic Treatment, Control"}, "[8]": {"conditions": "Homo sapiens, NHBE, 72 h, […], prophylactic schedule, dose response 4 nM to 10 μM, […], read-out: IC50, Prophylactic Treatment, Control"}}, "note": "Where two headings read alike, the source gives them in different places."}
{"smiles": "NOCC(=O)O", "values": [{"measurement": "IC50", "setting": "[1]; [3]", "result": 5000, "unit": "nM"}, {"measurement": "IC50", "setting": "[1]; [4]", "result": 10000, "unit": "nM"}]}
{"smiles": "O=C([O-])CC(O)C(=O)[O-].[Na+].[Na+]", "note": "(racemic) [DISODIUM DL-MALATE HYDRATE]", "values": [{"measurement": "IC50", "setting": "[1]; [5]", "result": 7000, "unit": "nM"}, {"measurement": "IC50", "setting": "[1]; [6]", "result": 30, "unit": "nM"}]}
{"smiles": "O=[N+]([O-])c1ccc(O)c([N+](=O)[O-])c1", "note": "[2,4-DINITROPHENOL]", "values": [{"measurement": "IC50", "setting": "[1]; [5]", "result": 4000, "unit": "nM"}, {"measurement": "IC50", "setting": "[1]; [6]", "result": 380, "unit": "nM"}, {"measurement": "IC50", "setting": "[1]; [7]", "result": 8000, "unit": "nM"}]}
{"smiles": "N#C/C(=C\\c1ccc(O)cc1)C(=O)O", "note": "[ALPHA-CYANO-4-HYDROXYCINNAMIC ACID]", "values": [{"measurement": "IC50", "setting": "[1]; [6]", "result": 3000, "unit": "nM"}]}
{"smiles": "CC(C)c1c(C(=O)Nc2ccccc2)c(-c2ccccc2)c(-c2ccc(F)cc2)n1CC[C@@H](O)C[C@@H](O)CC(=O)O", "note": "[ATORVASTATIN CALCIUM]", "values": [{"measurement": "IC50", "setting": "[1]; [3]", "result": 3000, "unit": "nM"}, {"measurement": "IC50", "setting": "[1]; [4]", "result": 3000, "unit": "nM"}]}
{"smiles": "Cc1cc([C@@H](C)Nc2ccccc2C(=O)O)c2nc(N3CCOCC3)cc(=O)n2c1", "note": "[AZD-6482]", "values": [{"measurement": "IC50", "setting": "[1]; [8]", "result": 5000, "unit": "nM"}]}
{"smiles": "CC(C)(Oc1ccc(CCNC(=O)c2ccc(Cl)cc2)cc1)C(=O)O", "note": "[BEZAFIBRATE]", "values": [{"measurement": "IC50", "setting": "[1]; [8]", "result": 7200, "unit": "nM"}]}
{"smiles": "OO.OO.[K+].[OH-].[V].c1cnc2c(c1)ccc1cccnc12", "note": "[BPV(PHEN)]", "values": [{"measurement": "IC50", "setting": "[1]; [7]", "result": 5, "unit": "nM"}]}
{"smiles": "C=C1C(=O)O[C@H](CCCCCCCC)[C@H]1C(=O)O", "note": "[C75]", "values": [{"measurement": "Cell Death Prophylactic", "setting": "[1]", "result": "C > V"}, {"measurement": "Cell Death Therapeutic", "setting": "[1]", "result": "C = V"}]}
{"smiles": "COc1cc(/C=C/C(=O)CC(=O)/C=C/c2ccc(O)c(OC)c2)ccc1O", "note": "[CURCUMIN]", "values": [{"measurement": "IC50", "setting": "[1]; [8]", "result": 1, "unit": "nM"}]}
{"smiles": "CSCC[C@H](NC(=O)[C@H](Cc1ccccc1)NC[C@@H](NC[C@@H](N)CS)C(C)C)C(=O)O", "note": "[FTASE INHIBITOR I]", "values": [{"measurement": "IC50", "setting": "[1]; [5]", "result": 200, "unit": "nM"}, {"measurement": "IC50", "setting": "[1]; [7]", "result": 90, "unit": "nM"}]}
{"smiles": "CC(C)n1c(/C=C/C(O)CC(O)CC(=O)O)c(-c2ccc(F)cc2)c2ccccc21", "note": "(stereo not drawn) [Fluvastatin]", "values": [{"measurement": "log reduction at 10 pM", "setting": "[2]; Therapeutic Drug Treatment, Drug Dose 10 pM, […]", "result": 0.16}, {"measurement": "log reduction at 0.0001 µM", "setting": "[2]; Therapeutic Drug Treatment, Drug Dose 100 pM, […]", "result": 0.5}, {"measurement": "log reduction at 0.001 µM", "setting": "[2]; Therapeutic Drug Treatment, Drug Dose 1 nM, […]", "result": 0.18}, {"measurement": "log reduction at 0.01 µM", "setting": "[2]; Therapeutic Drug Treatment, Drug Dose 10 nM, […]", "result": 0.34}, {"measurement": "log reduction at 0.1 µM", "setting": "[2]; Therapeutic Drug Treatment, Drug Dose 100 nM, […]", "result": 0.15}, {"measurement": "log reduction at 1 µM", "setting": "[2]; Therapeutic Drug Treatment, Drug Dose 1 μM, […]", "result": 0.51}, {"measurement": "log reduction at 10 µM", "setting": "[2]; Therapeutic Drug Treatment, Drug Dose 10 μM, […]", "result": 0.75}, {"measurement": "log reduction at 100 µM", "setting": "[2]; Therapeutic Drug Treatment, Drug Dose 100 μM, […]", "result": -0.33}]}
{"smiles": "CS(=O)(=O)N1CCN(Cc2cc3nc(-c4cccc5[nH]ncc45)nc(N4CCOCC4)c3s2)CC1", "note": "[GDC-0941]", "values": [{"measurement": "Cell Death Prophylactic", "setting": "[1]", "result": "C = V"}, {"measurement": "Cell Death Therapeutic", "setting": "[1]", "result": "C = V"}, {"measurement": "NHBE cell survival / cell death after infection", "setting": "[1]", "result": "no effect"}]}
{"smiles": "O=C1Nc2ccc3ncsc3c2/C1=C/c1cnc[nH]1", "note": "[IMIDAZOLO-OXINDOLE PKR INHIBITOR C16]", "values": [{"measurement": "IC50", "setting": "[1]; [7]", "result": 70, "unit": "nM"}]}
{"smiles": "O=C(O)c1nn(Cc2ccc(Cl)cc2Cl)c2ccccc12", "note": "[Lonidamine]", "values": [{"measurement": "log reduction at 10 pM", "setting": "[2]", "result": 0.94}, {"measurement": "log reduction at 0.0001 µM", "setting": "[2]", "result": 0.54}, {"measurement": "log reduction at 0.001 µM", "setting": "[2]", "result": 0.54}, {"measurement": "log reduction at 0.01 µM", "setting": "[2]", "result": 0.67}, {"measurement": "log reduction at 0.1 µM", "setting": "[2]", "result": 0.24}, {"measurement": "log reduction at 1 µM", "setting": "[2]", "result": 0.24}, {"measurement": "log reduction at 10 µM", "setting": "[2]", "result": 0.18}, {"measurement": "log reduction at 100 µM", "setting": "[2]", "result": 0.65}]}
{"smiles": "O=C(O)Cn1nnc(-c2cc(N3CCC(Oc4cc(F)ccc4Br)CC3)no2)n1", "note": "[MK-8245]", "values": [{"measurement": "IC50", "setting": "[1]; [8]", "result": 5000, "unit": "nM"}]}
{"smiles": "CO/C(=C\\C(N)=O)[C@H](C)[C@H](/C=C/c1csc(-c2csc([C@@H](C)/C=C/C=C/C(C)C)n2)n1)OC", "note": "[Myxothiazol]", "values": [{"measurement": "Cell Death Prophylactic", "setting": "[1]", "result": "C = V"}, {"measurement": "Cell Death Therapeutic", "setting": "[1]", "result": "C > V"}]}
{"smiles": "COc1ccc(Cc2nnc(NS(=O)(=O)c3ccccc3)s2)cc1", "note": "[OU749]", "values": [{"measurement": "log reduction at 10 pM", "setting": "[2]", "result": 0}, {"measurement": "log reduction at 0.0001 µM", "setting": "[2]", "result": 0.65}, {"measurement": "log reduction at 0.01 µM", "setting": "[2]", "result": 0.35}, {"measurement": "log reduction at 10 µM", "setting": "[2]", "result": 0.46}, {"measurement": "Viral Titer Therapeutic", "setting": "[2]", "result": "Reduced"}]}
{"smiles": "CCn1nnc2c(N3CCOCC3)nc(-c3ccc(NC(=O)Nc4ccc(C(=O)N5CCN(C)CC5)cc4)cc3)nc21", "note": "[PKI-402]", "values": [{"measurement": "Cell Death Prophylactic", "setting": "[1]", "result": "C = V"}, {"measurement": "Cell Death Therapeutic", "setting": "[1]", "result": "C = V"}, {"measurement": "NHBE cell survival / cell death after infection", "setting": "[1]", "result": "no effect"}, {"measurement": "IC50", "setting": "[1]; […], dose response 4 nM to 10 μM, […], read-out: IC50, Prophylactic Treatment, Viral Infected", "result": 3000, "unit": "nM"}, {"measurement": "IC50", "setting": "[1]; [7]", "result": 2, "unit": "nM"}]}
{"smiles": "CC(C)c1nc(N(C)S(C)(=O)=O)nc(-c2ccc(F)cc2)c1/C=C/[C@@H](O)C[C@@H](O)CC(=O)O", "note": "[Rosuvastatin]", "values": [{"measurement": "log reduction at 10 pM", "setting": "[2]", "result": 0}, {"measurement": "log reduction at 0.0001 µM", "setting": "[2]", "result": 0.15}, {"measurement": "log reduction at 0.001 µM", "setting": "[2]", "result": 0.76}, {"measurement": "log reduction at 0.01 µM", "setting": "[2]", "result": 0.66}, {"measurement": "log reduction at 0.1 µM", "setting": "[2]", "result": 0.41}, {"measurement": "log reduction at 1 µM", "setting": "[2]", "result": 1}, {"measurement": "log reduction at 10 µM", "setting": "[2]", "result": 0.79}, {"measurement": "log reduction at 100 µM", "setting": "[2]", "result": 0.64}, {"measurement": "Viral Titer Therapeutic", "setting": "[2]", "result": "Reduced"}]}
